In patent US20180193361A1, “GUT ANTI-INFLAMMATORY AGENTS FOR REGULATION OF HIGH BLOOD GLUCOSE LEVELS” (UNIVERSITY HEALTH NETWORK, priority 2015, published 2018):

Tests used:
gut epithelial barrier = conditions: models of IBD (Di Paolo et al., 1996; Liu et al., 2009); cited from earlier work
[1] = tablet; the remaining has local effects in the colon; cited from earlier work
MODE-K intestinal cells = experiment: ZO-1 expression in MODE-K cells treated with IFNγ; format: cell-based, murine; conditions: recombinant mouse IFNγ 5 or 10 ng/mL, 24 hours
Procedure: To measure the effect of IFNγ on tight-junction gene expression, we treated MODE-K cells with recombinant mouse IFNγ (Biolegend). We purified bulk dendritic cells and T cells from murine small bowels and spleens using a negative selection DC or T cell isolation kit (Stem Cell Technologies). We plated T cells at 5×10^5 cells/well with plate-bound anti-CD3/CD28 (1 μg/ml, Biolegend). […] We collected supernatants for cytokine measurements after 72 hour incubation. […] After 24 hours, we washed the cells with PBS and co-cultured them (1×10^4 cells/well) with OVA323-339 peptide and OT-II splenic or small bowel T cells (5×10^4 cells/well) for 48 hours. Supernatants were collected at 48 hours for cytokine measurement.
The murine intestinal epithelial cell line derived from C3H/He mice. […]
We extracted total RNA from isolated or cultured cells using a RNeasy Mini Kit (Qiagen), and for subcutaneous adipose tissue (SAT) and VAT we used a RNeasy Lipid Extraction kit (Qiagen). […] We assessed expression of adipocyte P2 (aP2), CCAAT/enhancer-binding protein-α (CEBPα), Peroxisome proliferator-activated receptor-γ (PPARγ), and sterol regulatory element-binding protein (SREBP) cDNA. […] We calculated relative fold changes in gene expression normalized to 18s or GAPDH by the ΔΔCT method using the equation 2-ΔΔCT. […]

## O=C(O)CCNC(=O)c1ccc(/N=N/c2ccc(O)c(C(=O)O)c2)cc1 [Balsalazide]
Gut epithelial barrier
  intactness of the gut epithelial barrier: beneficial effects

## O=C(O)c1cc(/N=N/c2ccc(S(=O)(=O)Nc3ccccn3)cc2)ccc1O [Sulfasalazine]
[1]
  absorbed in small bowel: approximately 20%

B1: IFNγ: recombinant mouse IFNγ (Biolegend) (protein, UniProt P01580 23-155, looked up)
Interferon gamma: HGTVIESLESLNNYFNSSGIDVEEKSLFLDIWRNWQKDGDMKILQSQIISFYLRLFEVLKDNQAISNNISVIESHLITTFFSNSKAKKDAFMSIAKFEVNNPQVQRQAFNELIRVVHQLLPESSLRKRKRSRC
MODE-K intestinal cells
  ZO-1 tight junction gene expression: reduce
